The source of these data is patent US20240165282A1, “CONFORMATIONAL CONSTRAINED SOMATOSTATIN RECEPTOR 3 PEPTIDE LIGANDS AND THEIR CONJUGATES AND USES THEREOF” (STARGET PHARMA LTD., priority 2021, published 2024).

*1 amine or outer side, *2 acyl side, *3 side chain or, on linkers, in order; H or OH if unused. Where a SMILES comes first, the peptide text is derived from it. Bridges are numbered along the chain shown (N, C = ends). Where no end group is shown, it is not given here. [ ]: non-standard residue; d: D form. N(2-mercaptoethyl)Gly = O=C(CN(CCS[*:3])[*:1])[*:2]

The term Ki denotes the equilibrium dissociation constant of an inhibitor or competing ligand from its target. As a reminder, the IC50 is the concentration at which inhibition is half-maximal.

In data set [1] the target is T1, SSTR3 (Homo sapiens, UniProt P32745). As to the kind of experiment: β-Arrestin mediated receptor internalization (PathHunter), transfected CHO cells. The class given is cell-based. Set-up: host or cells: CHO cells. The method, then:
The assays were performed utilizing the PathHunter beta-arrestin enzyme fragment complementation (EFC) technology by Eurofins (CA, USA).
Cell Handling: 1. PathHunter cell lines were expanded from freezer stocks according to standard procedures. 2. Cells were seeded in a total volume of 20 μL into white walled, 384-well microplates and incubated at 37° C. for the appropriate time prior to testing. Agonist Format: 1. For agonist determination, cells were incubated with sample to induce response. 2. Intermediate dilution of sample stocks was performed to generate 5× sample in assay buffer. 3. 5 μL of 5× sample was added to cells and incubated at 37° C. or room temperature for 90 or 180 minutes. Final assay vehicle concentration was 1%. […] Microplates were read following signal generation with a PerkinElmer Envision™ instrument for chemiluminescent signal detection. Data Analysi: Compound activity was analyzed using CBIS data analysis suite (ChemInnovation, CA). […] For agonist mode assays, percentage activity was calculated using the following formula: % Activity=100%×(mean RLU of test sample−mean RLU of vehicle control)/(mean MAX control ligand−mean RLU of vehicle control). […] For antagonist mode assays, percentage inhibition was calculated using the following formula: % Inhibition =100%×(1−(mean RLU of test sample−mean RLU of vehicle control)/(mean RLU of EC80 control−mean RLU of vehicle control)). […]

For a further data set, the target named is SSTR5 (Homo sapiens, UniProt P35346). As to the kind of experiment: Radioligand binding, displacement of 125I-Tyr11-SRIF-14. Set-up: host or cells: Chem-1 (Rat ChemiSCREEN) cells, membrane preparation. The settings on record: hSSTR-5; for IC50: read-out: IC50. An outline of the steps:
(§1)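 Assays ran at 25 °C in 25 mM HEPES pH 7.4 with 5 mM MgCl2, 1 mM CaCl2, 0.1% BSA and 1% DMSO. Filter-bound radioactivity gave IC50 by nonlinear least-squares regression.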
(Displacement assays read how much labelled ligand stays bound in the presence of the test substance.)

The target of the next data set is T2, hSSTR-4 (Homo sapiens, UniProt P31391).
T2 construct: host or cells: Chem-1 (Rat ChemiSCREEN) cells, membrane preparation
Described as above. The settings on record: hSSTR-4; for IC50: read-out: IC50. In short, it runs like this:
as §1

In a further data set the target is SSTR1 (Homo sapiens, UniProt P30872). The data set is described as above. Set-up: host or cells: CHO (Chinese Hamster Ovary) cells, membrane preparation. The settings on record: hSSTR-1; for IC50: read-out: IC50. In short, it runs like this:
as §1

For the next data set, the target named is SSTR2 (Homo sapiens, UniProt P30874). Described as above. Also on record: host or cells: CHO (Chinese Hamster Ovary) cells, membrane preparation. Particulars: hSSTR-2; for IC50: read-out: IC50. In short, it runs like this:
as §1

Data set [2] addresses T1, SSTR3. Described as above. Set-up: host or cells: CHO (Chinese Hamster Ovary) cells, membrane preparation. Particulars: for affinity and selectivity to SSTR3 (in words): binding data; for Hill coefficient (nH) / Ki / IC50: hSSTR-3; for Ki: Cheng and Prusoff, read-out: Ki; for IC50: read-out: IC50. In short, it runs like this:
as §1

The next data set deals with GH release. Briefly: L-arginine induced GH release in rats. The format is in vivo, Wistar rats. Particulars: S.C. 100-1000 microgram/kg, L-arginine stimulation. The method, then: (§2) In vivo determination of the pharmacodynamic properties of SSTR3 analogs was carried out in rats, according to known procedures (Afargan M. et al., 2001, Pless J. et al 1986).
Inhibition of GH release as a result of peptide administration was measured in Wistar male rats.
(§3) Adult male Wistar rats weighing 200-220 g, were maintained on a constant light-dark cycle (light from 8:00 to 20:00 h), temperature (21±3° C.), and relative humidity (55±10%). Laboratory chow and tap water were available ad libitum. All animals in the study were fasted overnight, animals were placed in cages with metal mesh to prevent coprophagia with free access to water. On the day of the experiment, rats were anesthetized with Nembutal (IP, 60 mg/kg). Ten minutes after anesthesia, drugs were administrated S.C. at 100-1000 microgram/kg dose. At 10 minutes after drugs administration the stimulation of GH and glucagon release were carried out by i.v. bolus administration of 0.5 g/kg L-arginine, stimulation of insulin release was carried out in separate animal groups that received i.v. bolus of 0.5 g/kg of glucose. Terminal blood samples in EDTA were collected at 5 minutes after stimulation. Blood samples were and centrifuged immediately. Plasma was separated and kept frozen at −20° C. until assayed.
Rat growth hormone (rGH), glucagon and insulin levels were determined by commercial ELISA kits using the Millipore ELISA kits (Billerica, MA, USA). The ELISA kit for rat plasma GH, Millipore, Cat. No. EZRMGH-45K was performed according to the validated detection method of colorimetric sandwich ELISA protocol (Supriya S. et al., 2013). The ELISA kit for rat plasma insulin, Millipore Cat. No. MMEZRMI13K (Merck) was performed according to the validated detection method of fluorescent colorimetric protocol (Xu, P.Z. et al., 2012). […]
(§4) Data analysis of rat plasma GH, glucagon and insulin levels was evaluated by the averaged plasma hormones levels of each group. […] Results are expressed as the mean±SEM.

The test system of another data set is insulin release. As to the kind of experiment: Glucose induced insulin release in rats. Particulars: S.C. 100-1000 microgram/kg, glucose stimulation. The format is in vivo, Wistar rats. The method, then: as §2, §3
Rat growth hormone (rGH), glucagon and insulin levels were determined by commercial ELISA kits using the Millipore ELISA kits (Billerica, MA, USA). The ELISA kit for rat plasma GH, Millipore, Cat. No. EZRMGH-45K was performed according to the validated detection method of colorimetric sandwich ELISA protocol (Supriya S. et al., 2013). The ELISA kit for rat plasma insulin, Millipore Cat. No. MMEZRMI13K (Merck) was performed according to the validated detection method of fluorescent colorimetric protocol (Xu, P.Z. et al., 2012). The ELISA kit for rat plasma glucagon, Millipore, Cat. No. EZGLU-35 was performed according to the validated detection method of chemiluminescent sandwich ELISA protocol (Soyeon Y. et al., 2021).
as §4

A short description of data set [3]: Physicochemical studies of surface activity. Particulars: nonspecific binding.
Details of data set [4]: species or system mice. Particulars: mouse, in vivo, iv. The method, then:
As described in Example 1 above, the successful substitution of the arginine with lysine which preserved the high affinity selectivity of SEQ ID NO: 2 to SSTR-3 (as depicted in table 3) can improve this analog as a better candidate for radioligand therapy and diagnostic. SEQ ID NO: 4 and SEQ ID NO: 10 are the gallium labeled analogs of SEQ ID NO: 1 and SEQ ID NO: 2 respectively. Following their radiolabeling the radioligand were injected to anesthetized naïve mice by intravenous administration. The mice were subjected to PET-CT imaging aimed to assess the disposition profiles of the radioligands.

The mark [5] stands for this setting: Cheng and Prusoff, read-out: Ki.

T2 sequence (P31391 whole entry): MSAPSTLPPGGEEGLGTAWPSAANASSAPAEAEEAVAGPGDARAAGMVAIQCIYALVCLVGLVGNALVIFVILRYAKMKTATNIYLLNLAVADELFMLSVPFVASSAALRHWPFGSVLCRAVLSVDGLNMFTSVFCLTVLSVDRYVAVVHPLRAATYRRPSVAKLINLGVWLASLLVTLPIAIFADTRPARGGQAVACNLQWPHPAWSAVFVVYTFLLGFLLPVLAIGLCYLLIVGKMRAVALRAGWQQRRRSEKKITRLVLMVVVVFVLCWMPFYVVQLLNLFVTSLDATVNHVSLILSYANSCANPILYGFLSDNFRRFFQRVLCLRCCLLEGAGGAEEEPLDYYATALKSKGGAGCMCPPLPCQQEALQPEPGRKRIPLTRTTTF
Sequence of SSTR2 (P30874 whole entry): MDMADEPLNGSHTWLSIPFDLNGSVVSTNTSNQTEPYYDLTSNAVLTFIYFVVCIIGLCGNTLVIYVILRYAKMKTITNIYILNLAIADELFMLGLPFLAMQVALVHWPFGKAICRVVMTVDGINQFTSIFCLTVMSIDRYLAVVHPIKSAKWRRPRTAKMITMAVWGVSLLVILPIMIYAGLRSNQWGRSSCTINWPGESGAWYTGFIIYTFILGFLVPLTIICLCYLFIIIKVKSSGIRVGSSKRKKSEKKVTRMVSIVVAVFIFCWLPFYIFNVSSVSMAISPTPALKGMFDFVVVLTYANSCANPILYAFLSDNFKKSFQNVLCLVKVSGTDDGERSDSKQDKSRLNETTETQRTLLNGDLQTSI
Sequence of SSTR5 (P35346 whole entry): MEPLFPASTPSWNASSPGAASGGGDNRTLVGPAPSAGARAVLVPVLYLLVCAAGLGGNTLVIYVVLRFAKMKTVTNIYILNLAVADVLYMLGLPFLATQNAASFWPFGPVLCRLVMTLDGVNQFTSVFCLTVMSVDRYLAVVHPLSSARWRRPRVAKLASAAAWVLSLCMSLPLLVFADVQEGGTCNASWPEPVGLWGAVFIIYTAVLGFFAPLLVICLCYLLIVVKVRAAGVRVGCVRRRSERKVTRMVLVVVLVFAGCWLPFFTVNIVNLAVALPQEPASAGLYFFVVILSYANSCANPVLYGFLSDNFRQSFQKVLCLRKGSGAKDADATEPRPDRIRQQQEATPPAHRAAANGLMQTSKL
Sequence of SSTR1 (P30872 whole entry): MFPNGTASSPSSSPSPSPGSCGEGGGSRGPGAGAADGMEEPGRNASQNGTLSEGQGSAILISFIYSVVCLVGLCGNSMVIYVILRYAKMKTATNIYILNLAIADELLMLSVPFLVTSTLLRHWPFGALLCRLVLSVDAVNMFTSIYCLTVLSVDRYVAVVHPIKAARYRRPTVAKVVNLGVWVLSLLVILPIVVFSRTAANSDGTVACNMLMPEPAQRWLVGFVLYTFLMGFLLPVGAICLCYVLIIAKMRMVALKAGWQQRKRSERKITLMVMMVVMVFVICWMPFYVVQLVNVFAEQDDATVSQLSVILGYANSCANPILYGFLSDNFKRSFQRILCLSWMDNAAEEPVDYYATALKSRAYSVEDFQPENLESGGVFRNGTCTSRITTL
T1 sequence (P32745 whole entry, the tested form may be a part): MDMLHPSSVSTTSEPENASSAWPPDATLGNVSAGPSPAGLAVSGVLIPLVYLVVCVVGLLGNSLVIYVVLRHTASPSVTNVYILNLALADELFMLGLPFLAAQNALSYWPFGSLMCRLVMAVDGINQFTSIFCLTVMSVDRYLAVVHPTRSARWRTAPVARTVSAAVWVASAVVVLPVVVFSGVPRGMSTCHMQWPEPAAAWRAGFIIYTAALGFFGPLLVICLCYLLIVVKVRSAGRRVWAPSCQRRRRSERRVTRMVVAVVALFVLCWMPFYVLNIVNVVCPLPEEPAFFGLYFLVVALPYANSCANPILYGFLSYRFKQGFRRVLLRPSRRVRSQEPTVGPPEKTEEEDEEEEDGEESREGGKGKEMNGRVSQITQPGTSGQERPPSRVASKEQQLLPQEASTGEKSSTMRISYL

For `C[C@@H](O)[C@@H]1NC(=O)[C@H](CCCCN)NC(=O)[C@@H](Cc2c[nH]c3ccccc23)NC(=O)[C@H](Cc2ccccc2)NC(=O)[C@@H](NC(=O)[C@H](CCCNC(=N)N)NC(=O)[C@H](N)Cc2ccccc2)CSSCCN(CC(N)=O)C(=O)[C@H](Cc2ccccc2)NC1=O` [SEQ ID NO: 1, H-D-Phe^1-Arg^2-Cys^3-Phe^4-D-Trp^5-Lys^6-Thr^7-Phe^8-NTEG^9-NH^2 (cyclo 3-9)] (H-[dF]RCF[dW]KTF[N(2-mercaptoethyl)Gly]-NH2; disulfide 3-9), at SSTR3 [1], the “agonistic activity profile at SSTR3 (in words)” value is recorded as “superagonistic activity profile of SSTR3 above the native hormone SRIF-14”. Further, the “Hill coefficient (nH)” value worked out at 1.2 at SSTR5; 1.24 at hSSTR-4; 0.74 on SSTR1; 1.25 on SSTR2; 1.28 on SSTR3 [2]. In addition, the Ki was 170 nM at SSTR5 (setting [5]); over 1000 nM at hSSTR-4 (setting [5]); 150 nM on SSTR1 (setting [5]); 320 nM on SSTR2 (setting [5]); 0.15 nM at SSTR3 [2]. Besides, the IC50 on SSTR5 is 310 nM; at hSSTR-4, over 1000 nM; on SSTR1, 180 nM; on SSTR2, 390 nM; at SSTR3 [2], 0.43 nM. Also, at SSTR3 [2], the “affinity and selectivity to SSTR3 (in words)” value is “high affinity and selectivity to human cloned SSTR3 in the nanomolar range”. Further, the “inhibition of GH release” value with GH release (listed as SEQ ID NO.1) is on record as “potent inhibitors of pituitary GH release”; in the data set on GH release (listed as SEQ ID NO:1) it was “potent anti-secretagogue of growth hormone secretion”. Moreover, in the data set with insulin release, the “effect on insulin release” value is “did not affect insulin release”.

Regarding `C[C@@H](O)[C@@H]1NC(=O)[C@H](CCCCN)NC(=O)[C@@H](Cc2c[nH]c3ccccc23)NC(=O)[C@H](Cc2ccccc2)NC(=O)[C@@H](NC(=O)[C@H](CCCCN)NC(=O)[C@H](N)Cc2ccccc2)CSSCCN(CC(N)=O)C(=O)[C@H](Cc2ccccc2)NC1=O` [SEQ ID NO: 2, H-D-Phe^1-Lys^2-Cys^3-Phe^4-D-Trp^5-Lys^6-Thr^7-Phe^8-NTEG^9-NH2 (cyclo 3-9)] (H-[dF]KCF[dW]KTF[N(2-mercaptoethyl)Gly]-NH2; disulfide 3-9), the surface activity profile result in [3] is reported as “favorable surface activity profile by means of reduced nonspecific binding”. Also, the IC50 was over 500 nM at SSTR5; over 1000 nM on hSSTR-4; over 100 nM at SSTR1; over 500 nM on SSTR2; 0.73 nM at SSTR3 [2]. Moreover, the “affinity and selectivity to SSTR3 (in words)” value on SSTR3 [2] is “retained the binding affinity and selectivity to SSTR3”. Also, the “Hill coefficient (nH)” value at SSTR3 [2] was 1.09. For the same compound, on SSTR3 [2], the Ki stood at 0.25 nM. In addition, in the data set with GH release, the “inhibition of GH release” value is listed as “potent inhibitors of pituitary GH release”. In the data set with insulin release, the “effect on insulin release” value is “did not affect insulin release”.

Turning to “radiolabeled SEQ ID NO: 2 ([dF]KCF[dW]KTF[N(2-mercaptoethyl)Gly]-NH2; disulfide 3-9; not fully specified (N-terminus); also: radiolabeled)”, in data set [4], the “clearance from the kidneys” value is listed as “significantly higher clearance of the peptide from the kidneys in comparison to radiolabeled SEQ ID NO: 1”.
